# Patent US20230115416A1, “COMPOSITIONS AND METHODS FOR PROMOTING CELLULAR METABOLIC FITNESS” (priority 2021, published 2023)
# Columns and labels:
# NMDAR = settings: by blocking adenosine receptor; cited from earlier work
# NMDAR glycine site = NMDAR glycine site (Homo sapiens, UniProt Q05586); assay: Modulation of the NMDAR glycine site in embodiments; settings: in embodiments of the invention
# hair regrowth = settings: topical petroleum jelly composition, up to 10% by weight, shaved skin of mice; cited from earlier work
# [1] = Tinnitus side effect of CMF modulator treatment; assay type: in vivo, human
# NMDAR glutamate site = settings: laboratory studies; cited from earlier work
smiles,measurement,setting,value
Cn1c(=O)c2c(ncn2C)n(C)c1=O [Caffeine],NMDAR stimulation,NMDAR,stimulates NMDAR at low micromolar concentrations
NCCS(=O)(=O)O [Taurine],modulation of the NMDAR glycine site,NMDAR glycine site,stronger negative modulation effects
N[C@@H](CCC(=O)O)C(=O)O [glutamic acid],rate of hair regrowth,hair regrowth,increases the rate of hair regrowth
same,tinnitus,[1]; dosed sublingually or topically,issues related to tinnitus have been observed
O=C1CC[C@@H](C(=O)O)N1 [pyroglutamic acid],modulation of the NMDAR glutamate site,NMDAR glutamate site,negative modulator
same,tinnitus,[1]; dosed orally,issues related to tinnitus have been observed
